IC50 data for 21 molecules are collected here from patent US7268128B2, “1,3,5-trisubstituted-5-phenyl and 5-pyridyl pyrazolopyrimidinone derivatives having PDE7 inhibiting action” (Ausbio Pharma Co., Ltd., priority 2001, dated 2007).

Structures can show the parent of a compound that is named as a salt.

The test deals with T1, PDE7 (type VII phosphodiesterase) (Homo sapiens, UniProt Q13946).
T1 construct: endogenous in cells; host or cells: MOLT-4 (ATCC CRL-1582), soluble fraction, HiTrapQ anion-exchange fraction
T1 sequence (Q13946 whole entry): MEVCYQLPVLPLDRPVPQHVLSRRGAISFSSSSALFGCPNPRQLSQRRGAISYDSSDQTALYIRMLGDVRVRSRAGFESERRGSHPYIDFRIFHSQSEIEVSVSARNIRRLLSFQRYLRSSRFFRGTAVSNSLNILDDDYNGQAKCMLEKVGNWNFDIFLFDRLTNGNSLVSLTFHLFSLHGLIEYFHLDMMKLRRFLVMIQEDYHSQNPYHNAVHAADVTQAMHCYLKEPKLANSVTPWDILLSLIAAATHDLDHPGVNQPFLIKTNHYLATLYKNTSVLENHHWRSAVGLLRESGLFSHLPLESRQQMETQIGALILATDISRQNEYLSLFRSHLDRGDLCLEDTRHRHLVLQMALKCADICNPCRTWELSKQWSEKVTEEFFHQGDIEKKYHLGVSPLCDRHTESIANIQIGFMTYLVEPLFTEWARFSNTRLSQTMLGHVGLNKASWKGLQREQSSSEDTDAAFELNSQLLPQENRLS
The test can be described thus: PDE7 inhibiting activity (3H-cAMP hydrolysis, active fraction from MOLT-4 cells). Format: biochemical. As to conditions: PDE7 fraction from MOLT-4 cells, 0.064 μM cAMP, 10 μM rolipram present, 2 hours at 25° C.; read-out: IC50 values for phosphodiesterase inhibiting activities (PDE7). The method, boiled down: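 Read-out: supernatant radioactivity after twice-repeated QAE-Sephadex treatment of a 2 h, 25° C reaction (3H-cAMP at 0.064 μM cAMP, 10 μM rolipram, 5′-nucleotidase, 1 mM MgCl2, pH 7.5). Enzyme is an anion-exchange-purified fraction from MOLT-4 T cells. IC50 taken as half-maximal inhibition.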
In the case of `CNCCNS(=O)(=O)c1ccc(-c2nc3c(C)nn(C4CCCCC4)c3c(=O)[nH]2)c(OC)c1` [Example 210-2, 4-(1-Cyclohexyl-3-methyl-7-oxo-6,7-dihydro-1H-pyrazolo[4,3-d]pyrimidin-5-yl)-3-methoxy-N-[2-(methylamino)ethyl]benzenesulfonamide], the IC50 (commonly the concentration needed to halve the response being measured) was no more than 1000 nM.
For `COc1cc(S(=O)(=O)NCCN(C)C)ccc1-c1nc2c(C)nn(C3CCCCC3)c2c(=O)[nH]1` [Example 211, 4-(1-Cyclohexyl-3-methyl-7-oxo-6,7-dihydro-1H-pyrazolo[4,3-d]pyrimidin-5-yl)-N-[2-(dimethylamino)ethyl]-3-methoxybenzenesulfonamide] the value was no more than 1000 nM; for `CNCCN(C)S(=O)(=O)c1ccc(-c2nc3c(C)nn(C4CCCCC4)c3c(=O)[nH]2)c(OC)c1` [Example 212, 4-(1-Cyclohexyl-3-methyl-7-oxo-6,7-dihydro-1H-pyrazolo[4,3-d]pyrimidin-5-yl)-3-methoxy-N-methyl-N-[2-(methylamino)ethyl]benzenesulfonamide], no more than 1000 nM.
As for `COc1cc(S(=O)(=O)N(C)CCO)ccc1-c1nc2c(C)nn(C3CCCCC3)c2c(=O)[nH]1` [Example 213, 4-(1-Cyclohexyl-3-methyl-7-oxo-6,7-dihydro-1H-pyrazolo[4,3-d]pyrimidin-5-yl)-N-(2-hydroxyethyl)-3-methoxy-N-methylbenzenesulfonamide], the concentration for half-maximal inhibition (IC50) is no more than 1000 nM.
Turning to `COc1cc(S(=O)(=O)N2CCN(C)CC2)ccc1-c1nc2c(C)nn(C3CCCCC3)c2c(=O)[nH]1` [Example 214, 1-Cyclohexyl-5-{2-methoxy-4-[(4-methyl-1-piperazinyl)sulfonyl]phenyl}-3-methyl-1,6-dihydro-7H-pyrazolo[4,3-d]pyrimidin-7-one], the IC50 was no more than 1000 nM.
The value for `CNCCCN(C)S(=O)(=O)c1ccc(-c2nc3c(C)nn(C4CCCCC4)c3c(=O)[nH]2)c(OC)c1` [Example 215, 4-(1-Cyclohexyl-3-methyl-7-oxo-6,7-dihydro-1H-pyrazolo[4,3-d]pyrimidin-5-yl)-3-methoxy-N-methyl-N-[3-(methylamino)propyl]benzenesulfonamide] was no more than 1000 nM; that for `COc1cc(S(=O)(=O)N2CCN(CCO)CC2)ccc1-c1nc2c(C)nn(C3CCCCC3)c2c(=O)[nH]1` [Example 216, 1-Cyclohexyl-5-(4-{[4-(2-hydroxyethyl)-1-piperazinyl]sulfonyl}-2-methoxyphenyl)-3-methyl-1,6-dihydro-7H-pyrazolo[4,3-d]pyrimidin-7-one] was no more than 1000 nM.
`COc1cc(S(=O)(=O)N2CCNCC2)ccc1-c1nc2c(C)nn(C3CCCCC3)c2c(=O)[nH]1` [Example 217, 1-Cyclohexyl-5-[2-methoxy-4-(1-piperazinylsulfonyl)phenyl]-3-methyl-1,6-dihydro-7H-pyrazolo[4,3-d]pyrimidin-7-one]: the IC50 is no more than 1000 nM.
For `CCN1CCN(S(=O)(=O)c2ccc(-c3nc4c(C)nn(C5CCCCC5)c4c(=O)[nH]3)c(OC)c2)CC1` [Example 218, 1-Cyclohexyl-5-{4-[(4-ethyl-1-piperazinyl)sulfonyl]-2-methoxyphenyl}-3-methyl-1,6-dihydro-7H-pyrazolo[4,3-d]pyrimidin-7-one] the value was no more than 1000 nM; for `COc1cc(S(=O)(=O)NC2CCNCC2)ccc1-c1nc2c(C)nn(C3CCCCC3)c2c(=O)[nH]1` [Example 220, 4-(1-Cyclohexyl-3-methyl-7-oxo-6,7-dihydro-1H-pyrazolo[4,3-d]pyrimidin-5-yl)-3-methoxy-N-(4-piperidinyl)benzenesulfonamide monohydrochloride], no more than 1000 nM.
Take `CNC1CCN(S(=O)(=O)c2ccc(-c3nc4c(C)nn(C5CCCCC5)c4c(=O)[nH]3)c(OC)c2)CC1` [Example 222, 1-Cyclohexyl-5-(2-methoxy-4-{[4-(methylamino)-1-piperidinyl]sulfonyl}phenyl)-3-methyl-1,6-dihydro-7H-pyrazolo[4,3-d]pyrimidin-7-one]: the IC50 was no more than 1000 nM.
`COc1cc(NC2CCNCC2)ccc1-c1nc2c(C)nn(C3CCCCC3)c2c(=O)[nH]1` [Example 224, 1-Cyclohexyl-5-[2-methoxy-4-(4-piperidinylamino)phenyl]-3-methyl-1,6-dihydro-7H-pyrazolo[4,3-d]pyrimidin-7-one]: the concentration for half-maximal inhibition (IC50) is no more than 10 nM.
On to `COCCNc1ccc(-c2nc3c(C)nn(C4CCCCC4)c3c(=O)[nH]2)c(OC)c1` [Example 225, 1-Cyclohexyl-5-{2-methoxy-4-[(2-methoxyethyl)amino]phenyl}-3-methyl-1,6-dihydro-7H-pyrazolo[4,3-d]pyrimidin-7-one], for which the IC50 is no more than 10 nM.
For `COc1cc(/C=C/C(=O)O)ccc1-c1nc2c(C)nn(C3CCCCC3)c2c(=O)[nH]1` [Example 227, (2E)-3-[4-(1-cyclohexyl-3-methyl-7-oxo-6,7-dihydro-1H-pyrazolo[4,3-d]pyrimidin-5-yl)-3-methoxyphenyl]-2-propenic acid] the value was no more than 10 nM; for `COc1cc(CCC(=O)O)ccc1-c1nc2c(C)nn(C3CCCCC3)c2c(=O)[nH]1` [Example 229, 3-[4-(1-Cyclohexyl-3-methyl-7-oxo-6,7-dihydro-1H-pyrazolo[4,3-d]pyrimidin-5-yl)-3-methoxyphenyl]propanic acid], no more than 1000 nM.
For `COc1cc(NCCN(C)C)ccc1-c1nc2c(C)nn(C3CCCCC3)c2c(=O)[nH]1` [Example 230, 1-Cyclohexyl-5-(4-{[2-(dimethylamino)ethyl]amino}-2-methoxyphenyl)-3-methyl-1,6-dihydro-7H-pyrazolo[4,3-d]pyrimidin-7-one] the value was no more than 10 nM; for `COc1cc(NC2CCN(C(C)=O)CC2)ccc1-c1nc2c(C)nn(C3CCCCC3)c2c(=O)[nH]1` [Example 231, 5-{4-[(1-Acetyl-4-piperidinyl)amino]-2-methoxyphenyl}-1-cyclohexyl-3-methyl-1,6-dihydro-7H-pyrazolo[4,3-d]pyrimidin-7-one], no more than 1000 nM; for `COc1cc(NC2CCN(C)CC2)ccc1-c1nc2c(C)nn(C3CCCCC3)c2c(=O)[nH]1` [Example 232, 1-Cyclohexyl-5-{2-methoxy-4-[(1-methyl-4-piperidinyl)amino]phenyl}-3-methyl-1,6-dihydro-7H-pyrazolo[4,3-d]pyrimidin-7-one], no more than 10 nM.
The value for `COc1cc(CN2CCN(C)CC2)ccc1-c1nc2c(C)nn(C3CCCCC3)c2c(=O)[nH]1` [Example 234, 1-Cyclohexyl-5-{2-methoxy-4-[(4-methyl-1-piperazinyl)methyl]phenyl}-3-methyl-1,6-dihydro-7H-pyrazolo[4,3-d]pyrimidin-7-one] was no more than 1000 nM; that for `COc1cc(CN2CCOCC2)ccc1-c1nc2c(C)nn(C3CCCCC3)c2c(=O)[nH]1` [Example 235, 1-Cyclohexyl-5-[2-methoxy-4-(4-morpholinylmethyl)phenyl]-3-methyl-1,6-dihydro-7H-pyrazolo[4,3-d]pyrimidin-7-one] was no more than 1000 nM; that for `COc1cc(CN2CCC(O)CC2)ccc1-c1nc2c(C)nn(C3CCCCC3)c2c(=O)[nH]1` [Example 236, 1-Cyclohexyl-5-{4-[(4-hydroxy-1-piperidinyl)methyl]-2-methoxyphenyl}-3-methyl-1,6-dihydro-7H-pyrazolo[4,3-d]pyrimidin-7-one] was no more than 1000 nM.
